Experimental data published in patent US20220089612A1, “HETEROCYCLIC COMPOUNDS AS PRMT5 INHIBITORS” (ANGEX PHARMACEUTICAL, INC., priority 2017, published 2022).

target: PRMT5:MEP50 (Homo sapiens, UniProt O14744); test: PRMT5:MEP50 Flashplate Assay; type: biochemical; conditions: PRMT5:MEP50 inhibitory activity; 3H-SAM, 2 h at room temperature, top concentration 10 μM
Experimental: PRMT5:MEP50 Flashplate Assay:
Ten-point curves of inhibitor compounds were made using serial threefold dilutions in DMSO (the final top concentration of compound was 10 μM, 1% DMSO). Reaction mixture consisting of 50 mM Tris-HCl (pH 8.5), 0.002% Tween 20, 0.005% BSA (Bovine Serum Albumin), 1 mM TCEP, and 1% DMSO. Substrates are freshly prepared in reaction buffer. PRMT5:MEP50 was then added into substrate solution and mixed gently. Inhibitor compound was then added and incubated for 30 min at room temperature. ^3H-SAM was added to initiate the reaction. Reactions were incubated for 2 h at room temperature and quenched with 0.5 mM SAM (S-adenosyl-L-Methionine) in assay buffer. An aliquot of the reaction mix was transferred to a streptavidin-coated 384-well FlashPlate (PerkinElmer). After an incubation time of 1 h, the plate was washed and then read on a TopCount (PerkinElmer) to measure the amount of tritium incorporated into the peptide substrate. IC50 was calculated using conventional curve-fitting method.

Chain of PRMT5:MEP50 (O14744 whole entry, species assumed): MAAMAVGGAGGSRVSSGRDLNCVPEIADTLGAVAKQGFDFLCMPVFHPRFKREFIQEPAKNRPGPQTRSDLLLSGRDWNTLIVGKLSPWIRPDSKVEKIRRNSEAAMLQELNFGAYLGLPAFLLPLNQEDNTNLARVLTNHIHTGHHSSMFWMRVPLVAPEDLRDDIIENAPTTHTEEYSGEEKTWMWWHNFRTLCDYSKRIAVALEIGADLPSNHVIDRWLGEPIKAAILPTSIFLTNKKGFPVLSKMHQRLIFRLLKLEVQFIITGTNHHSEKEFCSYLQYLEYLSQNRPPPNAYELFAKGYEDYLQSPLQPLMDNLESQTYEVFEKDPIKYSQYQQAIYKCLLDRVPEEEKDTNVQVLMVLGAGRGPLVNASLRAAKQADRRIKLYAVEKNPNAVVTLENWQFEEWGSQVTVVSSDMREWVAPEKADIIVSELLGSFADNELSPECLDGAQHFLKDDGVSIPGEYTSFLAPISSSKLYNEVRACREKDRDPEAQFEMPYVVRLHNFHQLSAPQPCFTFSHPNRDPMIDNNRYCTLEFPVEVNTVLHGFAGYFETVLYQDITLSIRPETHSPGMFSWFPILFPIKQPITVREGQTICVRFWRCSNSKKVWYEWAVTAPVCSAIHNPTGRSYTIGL
Chain of PRMT5:MEP50 (Q9BQA1 whole entry partner, species assumed): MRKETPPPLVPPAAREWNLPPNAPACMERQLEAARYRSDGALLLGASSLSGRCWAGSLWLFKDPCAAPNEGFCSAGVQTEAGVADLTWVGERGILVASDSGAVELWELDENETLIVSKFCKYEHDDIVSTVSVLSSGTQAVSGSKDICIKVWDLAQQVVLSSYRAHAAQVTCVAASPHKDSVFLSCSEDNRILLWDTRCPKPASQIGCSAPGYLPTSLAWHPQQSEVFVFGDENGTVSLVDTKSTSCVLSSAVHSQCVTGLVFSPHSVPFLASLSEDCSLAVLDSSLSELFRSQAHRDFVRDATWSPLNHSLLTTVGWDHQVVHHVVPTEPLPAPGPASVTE

IC50, 1 to 100 nM:
Nc1ncnc2c1ccn2[C@@H]1C[C@H](CCc2ccc3cc4cn[nH]c4nc3c2)[C@@H](O)[C@H]1O [Compound 1-12, (1S,2R,3S,5R)-3-(2-(1H-pyrazolo[3,4-b]quinolin-7-yl)ethyl)-5-(4-amino-7H-pyrrolo-[2,3-d]pyrimidin-7-yl)cyclopentane-1,2-diol]
C[C@H]1Cc2cc3ccc(CC[C@H]4C[C@@H](n5ccc6c(N)ncnc65)[C@H](O)[C@@H]4O)cc3nc2NO1 [Compound 1-15, (1R,2S,3R,5S)-3-(4-amino-7H-pyrrolo[2,3-d]pyrimidin-7-yl)-5-(2-((S)-3-methyl-3,4-dihydro-1H-[1,2]oxazino[3,4-b]quinolin-8-yl)ethyl)cyclopentane-1,2-diol]
Nc1ncnc2c1ccn2[C@@H]1C[C@H](CCc2ccc3cc4c(nc3c2)NOCCC4)[C@@H](O)[C@H]1O [Compound 1-17, (1R,2S,3R,5S)-3-(4-amino-7H-pyrrolo[2,3-d]pyrimidin-7-yl)-5-(2-(1,3,4,5-tetrahydro-[1,2]oxazepino[3,4-b]quinolin-9-yl)ethyl)cyclopentane-1,2-diol]
Nc1ncnc2c1ccn2[C@@H]1C[C@H](CCc2ccc3cc4nn[nH]c4nc3c2)[C@@H](O)[C@H]1O [Compound 1-19, (1S,2R,3S,5R)-3-(2-(3H-[1,2,3]triazolo[4,5-b]quinolin-6-yl)ethyl)-5-(4-amino-7H-pyrrolo[2,3-d]pyrimidin-7-yl)cyclopentane-1,2-diol]

IC50, < 1 nM:
NC1=Nc2cc(CC[C@H]3C[C@@H](n4ccc5c(N)ncnc54)[C@H](O)[C@@H]3O)ccc2[C@@H]2C[C@H]12 (single isomer, unassigned) [Compound 1-10]
NC1=Nc2cc(CC[C@H]3C[C@@H](n4ccc5c(N)ncnc54)[C@H](O)[C@@H]3O)ccc2[C@H]2C[C@@H]12 (single isomer, unassigned) [Compound 1-11]
Nc1ncnc2c1ccn2[C@@H]1C[C@H](CCc2ccc3cc4c(nc3c2)NCC4)[C@@H](O)[C@H]1O [Compound 1-7, (1R,2S,3R,5S)-3-(4-amino-7H-pyrrolo[2,3-d]pyrimidin-7-yl)-5-(2-(2,3-dihydro-1H-pyrrolo[2,3-b]quinolin-7-yl)ethyl)cyclopentane-1,2-diol]
NC1=Nc2cc(CC[C@H]3C[C@@H](n4ccc5c(N)ncnc54)[C@H](O)[C@@H]3O)ccc2C2=NCCN12 [Compound 1-8, (1S,2R,3S,5R)-3-(2-(5-amino-2,3-dihydroimidazo[1,2-c]quinazolin-8-yl)ethyl)-5-(4-amino-7H-pyrrolo[2,3-d]pyrimidin-7-yl)cyclopentane-1,2-diol]
Nc1ncnc2c1ccn2[C@@H]1C[C@H](CCc2ccc3c(c2)nc(N)n2ccnc32)[C@@H](O)[C@H]1O [Compound 1-9, (1R,2S,3R,5S)-3-(4-amino-7H-pyrrolo[2,3-d]pyrimidin-7-yl)-5-(2-(5-aminoimidazo-[1,2-c]quinazolin-8-yl)ethyl)cyclopentane-1,2-diol]
Nc1ncnc2c1ccn2[C@@H]1C[C@H](CCc2ccc3cc4c(nc3c2)NOCC4)[C@@H](O)[C@H]1O [Compound 1-13, (1R,2S,3R,5S)-3-(4-amino-7H-pyrrolo[2,3-d]pyrimidin-7-yl)-5-(2-(3,4-dihydro-1H-[1,2]oxazino[3,4-b]quinolin-8-yl)ethyl)cyclopentane-1,2-diol]
Nc1ncnc2c1ccn2[C@@H]1C[C@H](CCc2ccc3cc4c(nc3c2)NOC4)[C@@H](O)[C@H]1O [Compound 1-14, (1R,2S,3R,5S)-3-(4-amino-7H-pyrrolo[2,3-d]pyrimidin-7-yl)-5-(2-(1,3-dihydroisoxazolo[3,4-b]quinolin-7-yl)ethyl)cyclopentane-1,2-diol]
C[C@@H]1Cc2cc3ccc(CC[C@H]4C[C@@H](n5ccc6c(N)ncnc65)[C@H](O)[C@@H]4O)cc3nc2NO1 [Compound 1-16, (1R,2S,3R,5S)-3-(4-amino-7H-pyrrolo[2,3-d]pyrimidin-7-yl)-5-(2-((R)-3-methyl-3,4-dihydro-1H-[1,2]oxazino[3,4-b]quinolin-8-yl)ethyl)cyclopentane-1,2-diol]
Nc1ncnc2c1ccn2[C@@H]1C[C@H](CCc2ccc3cc4nc[nH]c4nc3c2)[C@@H](O)[C@H]1O [Compound 1-18, (1S,2R,3S,5R)-3-(2-(3H-imidazo[4,5-b]quinolin-6-yl)ethyl)-5-(4-amino-7H-pyrrolo[2,3-d]pyrimidin-7-yl)cyclopentane-1,2-diol]
C[C@H]1Cc2cc3ccc(CC[C@H]4C[C@@H](n5ccc6c(N)ncnc65)[C@H](O)[C@@H]4O)cc3nc2N1 [Compound 1-20, (1R,2S,3R,5S)-3-(4-amino-7H-pyrrolo[2,3-d]pyrimidin-7-yl)-5-(2-((S)-2-methyl-2,3-dihydro-1H-pyrrolo[2,3-b]quinolin-7-yl)ethyl)cyclopentane-1,2-diol]
C[C@@H]1Cc2cc3ccc(CC[C@H]4C[C@@H](n5ccc6c(N)ncnc65)[C@H](O)[C@@H]4O)cc3nc2N1 [Compound 1-21, (1R,2S,3R,5S)-3-(4-amino-7H-pyrrolo[2,3-d]pyrimidin-7-yl)-5-(2-((R)-2-methyl-2,3-dihydro-1H-pyrrolo[2,3-b]quinolin-7-yl)ethyl)cyclopentane-1,2-diol]
Nc1ncnc2c1ccn2[C@@H]1C[C@H](CCc2ccc3cc4c(nc3c2)N[C@H](C2CC2)C4)[C@@H](O)[C@H]1O [Compound 1-22, (1R,2S,3R,5S)-3-(4-amino-7H-pyrrolo[2,3-d]pyrimidin-7-yl)-5-(2-((S)-2-cyclopropyl-2,3-dihydro-1H-pyrrolo[2,3-b]quinolin-7-yl)ethyl)cyclopentane-1,2-diol]
Nc1ncnc2c1ccn2[C@@H]1C[C@H](CCc2ccc3cc4c(nc3c2)N[C@@H](C2CC2)C4)[C@@H](O)[C@H]1O [Compound 1-23, (1R,2S,3R,5S)-3-(4-amino-7H-pyrrolo[2,3-d]pyrimidin-7-yl)-5-(2-((R)-2-cyclopropyl-2,3-dihydro-1H-pyrrolo[2,3-b]quinolin-7-yl)ethyl)cyclopentane-1,2-diol]
CC[C@@H]1Cc2cc3ccc(CC[C@H]4C[C@@H](n5ccc6c(N)ncnc65)[C@H](O)[C@@H]4O)cc3nc2N1 [Compound 1-24, (1R,2S,3R,5S)-3-(4-amino-7H-pyrrolo[2,3-d]pyrimidin-7-yl)-5-(2-((R)-2-ethyl-2,3-dihydro-1H-pyrrolo[2,3-b]quinolin-7-yl)ethyl)cyclopentane-1,2-diol]
CC(C)[C@@H]1Cc2cc3ccc(CC[C@H]4C[C@@H](n5ccc6c(N)ncnc65)[C@H](O)[C@@H]4O)cc3nc2N1 [Compound 1-25, (1R,2S,3R,5S)-3-(4-amino-7H-pyrrolo[2,3-d]pyrimidin-7-yl)-5-(2-((S)-2-isopropyl-2,3-dihydro-1H-pyrrolo[2,3-b]quinolin-7-yl)ethyl)cyclopentane-1,2-diol]
CC(C)(C)[C@@H]1Cc2cc3ccc(CC[C@H]4C[C@@H](n5ccc6c(N)ncnc65)[C@H](O)[C@@H]4O)cc3nc2N1 [Compound 1-26, (1R,2S,3R,5S)-3-(4-amino-7H-pyrrolo[2,3-d]pyrimidin-7-yl)-5-(2-((S)-2-(tert-butyl)-2,3-dihydro-1H-pyrrolo[2,3-b]quinolin-7-yl)ethyl)cyclopentane-1,2-diol]
